Laboratory results: US20190307818A1, “NOVEL ANTIMICROBIAL COMPOSITIONS AND METHODS OF USE” (priority 2016, published 2019)

Key:
[1] = test system: P. aeruginosa PA14 ΔlasI ΔrhII CRISPR adaptation; experiment: CRISPR adaptation (new spacer integration by PCR); format: cell-based; details: ΔlasI ΔrhII strain; AIs 2 μM 3-O—C12-HSL+10 μM C4-HSL given together; Baicalein 100 μM with AIs; vs DMSO
Experimental: FIG. 3. QS inhibitors block CRISPR adaptation and disable QS-mediated bacterial immunity. A P. aeruginosa PA14 ΔlasI ΔrhII QS deficient strain was transformed with foreign DNA (e.g., a CRISPR-targeted plasmid). A single colony from the transformation was re-streaked on selective media containing either DMSO (as a control), AIs (2 μM 3-O—C12-HSL+10 μM C4-HSL), or AIs and a QS inhibitor (2 μM 3-O—C12-HSL+10 μM C4-HSL+100 μM Baicalein). Single colonies were tested for integration of new inserted spacers (conferring immunity) against the CRISPR-targeted plasmid. In particular, PCR primers were designed to amplify specific genomic regions into which spacers were inserted. Primers complementary to the region upstream of the CRISPR region and to the second spacer region were designed, and PCR amplification was utilized to test for the presence of the newly inserted spacer (a process referred to as adaptation).
A P. aeruginosa PA14 ΔlasI ΔrhII QS deficient strain was transformed with foreign DNA (e.g., a CRISPR-targeted plasmid such as pCR2SP1, as described above). A single colony from the transformation was re-streaked on selective medium, e.g., LB medium containing 50 μg/ml gentamicin and either DMSO (as a control), AIs (2 μM 3-O—C12-HSL+10 μM C4-HSL), or both AIs and a QS inhibitor (2 μM 3-O—C12-HSL+[…] C4-HSL+100 μM Baicalein QS inhibitor) and incubated at 37° C. O/N. Single colonies were tested for integration of new immunity spacers against the CRISPR-targeted plasmid by PCR using iProof High-Fidelity DNA Polymerase (Bio-Rad) and primers CR2SP check F+R upstream of the CRISPR2 region and in the second spacer. Thus, PCR primers were designed to amplify the genomic region in which the new spacer was present. Primers targeting a sequence upstream of the CRISPR-Cas region and targeting the second spacer region were designed, and PCR amplification was utilized to test for the presence of the new inserted spacer (a portion of the plasmid sequence inserted between the CRISPR locus and spacers). […]

cas3 = cas3 expression by qRT-PCR; format: cell-based, Pseudomonas aeruginosa PA14; details: ΔlasI ΔrhII mutant; 100 μM 3-O—C12-HSL and 100 μM C4-HSL given together; normalized to 5S ribosomal RNA
Experimental: In one example protocol, P. aeruginosa PA14 and mutants were grown overnight at 37° C. with shaking in LB broth. Cultures were back diluted 1:100 and grown to the indicated OD600 in the presence or absence of DMSO, 3-O—C12-HSL, C4—HSL (Sigma) or Baicalein (Cayman Chemical) at the specified concentrations. LB was supplemented with 50 μg/ml Gentamicin where appropriate.
For Quantitative Real Time-PCR (qRT-PCR), bacteria were harvested at the indicated OD600. RNA was purified using Trizol (Ambion), DNAse treated using DNA-free (Ambion), cDNA was synthesized using SuperScript® III Reverse Transcriptase (Invitrogen) and quantified using PerfeCTa® SYBR® Green FastMix®, Low ROX (Quanta Biociences).
Quantitative Real Time-PCR (qRT-PCR) was utilized to determine the relative expression of cas3 in each of these mutant strains. Additionally, 100 μM 3-O—C12-HSL and 100 μM C4-HSL, which are AIs that rescue cas3 expression, were added to the cell culture comprising the mutant strain ΔlasI ΔrhII. It is understood that other concentrations of 3-O—C12-HSL and C4—HSL are also suitable, e.g., the concentrations may be in the range of 2 μM to 100 μM, from 10 μM to 100 μM or from 2 μM to 10 μM. In some embodiments, 2 μM of 3-O—C12-HSL and 10 μM of C4-HSL were used. The expression profiles for cas3 for each strain were then normalized based on expression of 5S ribosomal RNA. […]

CRISPR-Cas system = experiment: Transformation assay, efficiency of transformation (EOT); format: cell-based, P. aeruginosa PA14; details: ΔlasI ΔrhII mutant; both AIs added together
Experimental: Bacteria were grown to the appropriate OD600, washed twice at RT in 300 mM sucrose, and electroporated with 1 μg empty vector plasmid pHERD30T or pCR2SP1 containing a phage-derived sequence specifically targeted for degradation by CRISPR-Cas (Bondy-Denomy, Pawluk et al. 2013). 1 ml LB was added and the bacteria were grown 1 h at 37° C. with shaking, after which they were plated on selective medium, e.g., LB medium containing 50 μg/ml gentamicin, and incubated overnight at 37° C. Bacterial colonies were counted using Image Quant Las 4000 and Image Quant TL software (GE Healthcare). Colony forming units (CFU)/ml were quantified and the efficiency of transformation was calculated as the percentage of colonies transformed by pCR2SP1 compared to those transformed by the empty vector control pHERD30T.
This assay utilizes a plasmid as a proxy for a phage, to quantify the frequency with which a foreign genetic material is identified and targeted for degradation by the host bacterial immune system. For bacterial cells having a functional CRISPR-Cas system, the plasmid will be targeted for destruction, and no colonies will grow on the plate, as antibiotic resistance has been lost.
For cells lacking a CRISPR-Cas system or having an impaired or partially functioning CRISPR-Cas system, the electroporated plasmid evades destruction by the bacterial host and is able to replicate. […]

[2] = test system: Wild-type P. aeruginosa pyocyanin production; details: previously shown; cited from earlier work

Row | Compound | CRISPR adaptation (fraction of cells in the colony that adapted) [1] | cas3 expression (cas3) | immune activity (efficiency of transformation) (CRISPR-Cas system) | pyocyanin production [2]
1 | CCCC(=O)N[C@H]1CCOC1=O [Molecule C4-HSL, N-butyryl-L-homoserine lactone] | increased the fraction of cells in the colony that adapted | restore cas3 expression to WT levels | restored immune activity to nearly WT levels | –
2 | meta-bromothiolactone [mBTL] | – | – | – | inhibit pyocyanin production
3 | CCCCCCCCCC(=O)CC(=O)N[C@H]1CCOC1=O [3-O—C12-HSL] | increased the fraction of cells in the colony that adapted | restore cas3 expression to WT levels | restored immune activity to nearly WT levels | –
